Measurements: ChEMBL document CHEMBL3885881, “DrugMatrix”

Species on record: Rattus norvegicus
Experiment: DrugMatrix - Regimen: Daily Repeat
Assay type: toxicity, organism-based, Sprague-Dawley
Parameters: regimen Daily Repeat, gender Male, age 6-8 weeks
Conditions: in vivo, po, route oral GAVAGE, vehicle .5 % CMC; for ABSOLUTE BASOPHIL / ABSOLUTE EOSINOPHIL / ABSOLUTE LYMPHOCYTE / ABSOLUTE MONOCYTE / ABSOLUTE SEGMENTED NEUTROPHIL / BASOPHIL / EOSINOPHIL / ERYTHROCYTE COUNT / HEMATOCRIT / HEMOGLOBIN / LEUKOCYTE COUNT / LYMPHOCYTE / MEAN CORPUSCULAR HEMOGLOBIN / MEAN CORPUSCULAR HEMOGLOBIN CONCENTRATION / MEAN CORPUSCULAR VOLUME / MONOCYTE / NEUTROPHIL / NUCLEATED RED BLOOD CELLS / PLATELET COUNT: tissue Blood; for ALANINE AMINOTRANSFERASE / ALBUMIN / ALKALINE PHOSPHATASE / ASPARTATE AMINOTRANSFERASE / BLOOD UREA NITROGEN / CARBON DIOXIDE / CHLORIDE / CHOLESTEROL / CREATINE PHOSPHOKINASE / CREATININE / GLUCOSE / LACTATE DEHYDROGENASE / LIPASE / PHOSPHORUS / POTASSIUM / SODIUM / TOTAL BILIRUBIN / TOTAL PROTEIN / URIC ACID: tissue Plasma
[1] = 25 mg/kg, 72 h, dose level Low, time 3 day
[2] = 25 mg/kg, 120 h, dose level Low, time 5 day
[3] = 1500 mg/kg, 72 h, dose level High, time 3 day
[4] = 1500 mg/kg, 120 h, dose level High, time 5 day

COC(=O)Nc1nc2ccc([S+]([O-])c3ccccc3)cc2[nH]1 (configuration not stated) [OXFENDAZOLE]
ABSOLUTE BASOPHIL [1]: 0 CELLS/uL | ABSOLUTE EOSINOPHIL [1]: 48 CELLS/uL | ABSOLUTE LYMPHOCYTE [1]: 11822 CELLS/uL | ABSOLUTE MONOCYTE [1]: 187.33 CELLS/uL | ABSOLUTE SEGMENTED NEUTROPHIL [1]: 2342.67 CELLS/uL | BASOPHIL [1]: 0% | EOSINOPHIL [1]: 0.33% | ERYTHROCYTE COUNT [1]: 6.05 x10E6/uL | HEMATOCRIT [1]: 36.2% | HEMOGLOBIN [1]: 13.87 G/DL | LEUKOCYTE COUNT [1]: 14.4 x10E3/uL | LYMPHOCYTE [1]: 82% | MEAN CORPUSCULAR HEMOGLOBIN [1]: 22.93 pg | MEAN CORPUSCULAR HEMOGLOBIN CONCENTRATION [1]: 38.33 G/DL | MEAN CORPUSCULAR VOLUME [1]: 59.8 fL | MONOCYTE [1]: 1.33% | NEUTROPHIL [1]: 16.33% | NUCLEATED RED BLOOD CELLS [1]: 0 /100WBC | PLATELET COUNT [1]: 1268.67 x10E3/uL | ALANINE AMINOTRANSFERASE [1]: 56 u/L | ALBUMIN [1]: 4.13 G/DL | ALKALINE PHOSPHATASE [1]: 355 u/L | ASPARTATE AMINOTRANSFERASE [1]: 78.67 u/L | BLOOD UREA NITROGEN [1]: 14 mg/dL | CARBON DIOXIDE [1]: 25 mmol/L | CHLORIDE [1]: 99 MEQ/L | CHOLESTEROL [1]: 78.67 mg/dL | CREATINE PHOSPHOKINASE [1]: 173.33 u/L | CREATININE [1]: 0.15 mg/dL | GLUCOSE [1]: 161.67 mg/dL | LACTATE DEHYDROGENASE [1]: 153 u/L | LIPASE [1]: 10 u/L | PHOSPHORUS [1]: 13.1 mg/dL | POTASSIUM [1]: 8.18 MEQ/L | SODIUM [1]: 142.9 MEQ/L | TOTAL BILIRUBIN [1]: 0.2 mg/dL | TOTAL PROTEIN [1]: 5.77 G/DL | URIC ACID [1]: 2.07 mg/dL | ABSOLUTE BASOPHIL [2]: 0 CELLS/uL | ABSOLUTE EOSINOPHIL [2]: 0 CELLS/uL | ABSOLUTE LYMPHOCYTE [2]: 12550 CELLS/uL | ABSOLUTE MONOCYTE [2]: 0 CELLS/uL | ABSOLUTE SEGMENTED NEUTROPHIL [2]: 983.33 CELLS/uL | BASOPHIL [2]: 0% | EOSINOPHIL [2]: 0% | ERYTHROCYTE COUNT [2]: 5.35 x10E6/uL | HEMATOCRIT [2]: 31.93% | HEMOGLOBIN [2]: 12.77 G/DL | LEUKOCYTE COUNT [2]: 13.53 x10E3/uL | LYMPHOCYTE [2]: 93% | MEAN CORPUSCULAR HEMOGLOBIN [2]: 23.9 pg | MEAN CORPUSCULAR HEMOGLOBIN CONCENTRATION [2]: 40 G/DL | MEAN CORPUSCULAR VOLUME [2]: 59.73 fL | MONOCYTE [2]: 0% | NEUTROPHIL [2]: 7% | NUCLEATED RED BLOOD CELLS [2]: 0 /100WBC | PLATELET COUNT [2]: 856.67 x10E3/uL | ALANINE AMINOTRANSFERASE [2]: 57.67 u/L | ALBUMIN [2]: 4.17 G/DL | ALKALINE PHOSPHATASE [2]: 330.67 u/L | ASPARTATE AMINOTRANSFERASE [2]: 89 u/L | BLOOD UREA NITROGEN [2]: 16 mg/dL | CARBON DIOXIDE [2]: 24 mmol/L | CHLORIDE [2]: 100.67 MEQ/L | CHOLESTEROL [2]: 74 mg/dL | CREATINE PHOSPHOKINASE [2]: 346.33 u/L | CREATININE [2]: 0.21 mg/dL | GLUCOSE [2]: 161.67 mg/dL | LACTATE DEHYDROGENASE [2]: 356.67 u/L | LIPASE [2]: 9 u/L | PHOSPHORUS [2]: 12.83 mg/dL | POTASSIUM [2]: 7.04 MEQ/L | SODIUM [2]: 141.83 MEQ/L | TOTAL BILIRUBIN [2]: 0.2 mg/dL | TOTAL PROTEIN [2]: 5.9 G/DL | URIC ACID [2]: 2.33 mg/dL | ABSOLUTE BASOPHIL [3]: 0 CELLS/uL | ABSOLUTE EOSINOPHIL [3]: 0 CELLS/uL | ABSOLUTE LYMPHOCYTE [3]: 9253.67 CELLS/uL | ABSOLUTE MONOCYTE [3]: 174.67 CELLS/uL | ABSOLUTE SEGMENTED NEUTROPHIL [3]: 671.67 CELLS/uL | BASOPHIL [3]: 0% | EOSINOPHIL [3]: 0% | ERYTHROCYTE COUNT [3]: 5.79 x10E6/uL | HEMATOCRIT [3]: 34.2% | HEMOGLOBIN [3]: 13.37 G/DL | LEUKOCYTE COUNT [3]: 10.1 x10E3/uL | LYMPHOCYTE [3]: 91.67% | MEAN CORPUSCULAR HEMOGLOBIN [3]: 23.07 pg | MEAN CORPUSCULAR HEMOGLOBIN CONCENTRATION [3]: 39.1 G/DL | MEAN CORPUSCULAR VOLUME [3]: 59.03 fL | MONOCYTE [3]: 1.67% | NEUTROPHIL [3]: 6.67% | NUCLEATED RED BLOOD CELLS [3]: 0 /100WBC | PLATELET COUNT [3]: 1138.67 x10E3/uL | ALANINE AMINOTRANSFERASE [3]: 42.33 u/L | ALBUMIN [3]: 4 G/DL | ALKALINE PHOSPHATASE [3]: 328.67 u/L | ASPARTATE AMINOTRANSFERASE [3]: 70.33 u/L | BLOOD UREA NITROGEN [3]: 15.33 mg/dL | CARBON DIOXIDE [3]: 27.33 mmol/L | CHLORIDE [3]: 100.33 MEQ/L | CHOLESTEROL [3]: 67.67 mg/dL | CREATINE PHOSPHOKINASE [3]: 217.33 u/L | CREATININE [3]: 0.17 mg/dL | GLUCOSE [3]: 160.33 mg/dL | LACTATE DEHYDROGENASE [3]: 90 u/L | LIPASE [3]: 9.67 u/L | PHOSPHORUS [3]: 11.6 mg/dL | POTASSIUM [3]: 6.25 MEQ/L | SODIUM [3]: 142.17 MEQ/L | TOTAL BILIRUBIN [3]: 0.1 mg/dL | TOTAL PROTEIN [3]: 5.43 G/DL | URIC ACID [3]: 1.83 mg/dL | ABSOLUTE BASOPHIL [4]: 0 CELLS/uL | ABSOLUTE EOSINOPHIL [4]: 0 CELLS/uL | ABSOLUTE LYMPHOCYTE [4]: 9784.67 CELLS/uL | ABSOLUTE MONOCYTE [4]: 35.33 CELLS/uL | ABSOLUTE SEGMENTED NEUTROPHIL [4]: 380 CELLS/uL | BASOPHIL [4]: 0% | EOSINOPHIL [4]: 0% | ERYTHROCYTE COUNT [4]: 5.39 x10E6/uL | HEMATOCRIT [4]: 32.9% | HEMOGLOBIN [4]: 13.2 G/DL | LEUKOCYTE COUNT [4]: 10.2 x10E3/uL | LYMPHOCYTE [4]: 95.67% | MEAN CORPUSCULAR HEMOGLOBIN [4]: 24.53 pg | MEAN CORPUSCULAR HEMOGLOBIN CONCENTRATION [4]: 40.13 G/DL | MEAN CORPUSCULAR VOLUME [4]: 61.07 fL | MONOCYTE [4]: 0.33% | NEUTROPHIL [4]: 4% | NUCLEATED RED BLOOD CELLS [4]: 0 /100WBC | PLATELET COUNT [4]: 1442.33 x10E3/uL | ALANINE AMINOTRANSFERASE [4]: 41 u/L | ALBUMIN [4]: 4.17 G/DL | ALKALINE PHOSPHATASE [4]: 331.33 u/L | ASPARTATE AMINOTRANSFERASE [4]: 79.67 u/L | BLOOD UREA NITROGEN [4]: 15.33 mg/dL | CARBON DIOXIDE [4]: 27.67 mmol/L | CHLORIDE [4]: 101.67 MEQ/L | CHOLESTEROL [4]: 69.67 mg/dL | CREATINE PHOSPHOKINASE [4]: 228 u/L | CREATININE [4]: 0.16 mg/dL | GLUCOSE [4]: 143 mg/dL | LACTATE DEHYDROGENASE [4]: 165 u/L | LIPASE [4]: 9.33 u/L | PHOSPHORUS [4]: 13.13 mg/dL | POTASSIUM [4]: 6.91 MEQ/L | SODIUM [4]: 146.13 MEQ/L | TOTAL BILIRUBIN [4]: 0.13 mg/dL | TOTAL PROTEIN [4]: 5.77 G/DL | URIC ACID [4]: 1.7 mg/dL
